Laboratory results published in PMC9994260, “Cryo-EM structure of the RADAR supramolecular anti-phage defense complex” (Cell, 2023).
Values joined by “and” are separate entries in the source; they are usually repeats but may differ in a detail not shown here. Identical values can stand only once.

Legend:
E. coli RdrB (EcRdrB) [1] = molecular target: T1, E. coli RdrB (EcRdrB) (Escherichia coli, UniProt A0AAN0NNX4); assay: HPLC deamination assay (dATP to dITP) after phosphatase treatment; assay type: biochemical; details: 1 mM substrate, 1 μM RdrB, 30 min, 37 °C, pH 7.5, 10 mM MgCl2, 100 μM ZnSO4, 50 mM KCl, 1 mM TCEP
T1 construct: full-length, ~90 kDa, N-terminal 6xHis-SUMO2 tag removed by SENP2, expressed in E. coli BL21-RIL; dodecamer; Zn site H152, H154, H498, H530, catalytic E501
T1 sequence (A0AAN0NNX4 1-799): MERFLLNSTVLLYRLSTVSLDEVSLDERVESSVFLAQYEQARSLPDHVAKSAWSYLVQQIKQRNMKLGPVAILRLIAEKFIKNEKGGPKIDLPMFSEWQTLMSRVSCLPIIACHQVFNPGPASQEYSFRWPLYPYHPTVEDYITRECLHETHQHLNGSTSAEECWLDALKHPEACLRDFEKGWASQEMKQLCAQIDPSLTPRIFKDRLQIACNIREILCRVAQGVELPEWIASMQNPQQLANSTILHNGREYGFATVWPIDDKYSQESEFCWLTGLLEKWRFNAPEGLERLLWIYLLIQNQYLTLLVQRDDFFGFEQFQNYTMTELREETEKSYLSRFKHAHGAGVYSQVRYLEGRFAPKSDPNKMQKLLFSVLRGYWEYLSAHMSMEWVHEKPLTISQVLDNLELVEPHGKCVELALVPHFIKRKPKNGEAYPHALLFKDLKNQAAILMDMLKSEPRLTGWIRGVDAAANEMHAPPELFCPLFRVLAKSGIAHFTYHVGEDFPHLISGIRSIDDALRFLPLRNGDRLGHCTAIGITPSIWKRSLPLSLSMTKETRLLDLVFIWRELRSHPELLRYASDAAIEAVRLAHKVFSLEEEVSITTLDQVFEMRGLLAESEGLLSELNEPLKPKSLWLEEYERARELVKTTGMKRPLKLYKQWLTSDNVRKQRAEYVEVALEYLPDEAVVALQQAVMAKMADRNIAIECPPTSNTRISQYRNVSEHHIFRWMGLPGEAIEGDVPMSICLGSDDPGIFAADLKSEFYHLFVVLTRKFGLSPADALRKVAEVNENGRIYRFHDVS

[2] = molecular target: E. coli RdrB (RADAR system of E. coli P0304799.3) (E. coli P0304799.3); assay: cryo-EM structure; purified E. coli RdrB alone, 2.35 mg/mL, vitrified at 4°C; Titan Krios 300 kV
[3] = molecular target: E. coli RdrA (RADAR system of E. coli P0304799.3) (E. coli P0304799.3); assay: cryo-EM structure; purified E. coli RdrA alone, 2.40 mg/mL, vitrified at 4°C; Titan Krios 300 kV
E. coli RdrA (EcRdrA) = molecular target: T2, E. coli RdrA (EcRdrA) (Escherichia coli, UniProt A0AAN0NNX5); assay: malachite green phosphate release (NTPase); assay type: biochemical; details: 1 mM NTP, 5 μM RdrA, 2 h, pH 7.5, 10 mM MgCl2, 50 mM KCl, 1 mM TCEP
T2 construct: full-length, N-terminal 6xHis-SUMO2 tag removed by SENP2, expressed in E. coli BL21-RIL; heptamer, active site between neighbouring subunits; Walker A G81, K82, T83, Walker B D221, D222
T2 sequence (A0AAN0NNX5 1-947): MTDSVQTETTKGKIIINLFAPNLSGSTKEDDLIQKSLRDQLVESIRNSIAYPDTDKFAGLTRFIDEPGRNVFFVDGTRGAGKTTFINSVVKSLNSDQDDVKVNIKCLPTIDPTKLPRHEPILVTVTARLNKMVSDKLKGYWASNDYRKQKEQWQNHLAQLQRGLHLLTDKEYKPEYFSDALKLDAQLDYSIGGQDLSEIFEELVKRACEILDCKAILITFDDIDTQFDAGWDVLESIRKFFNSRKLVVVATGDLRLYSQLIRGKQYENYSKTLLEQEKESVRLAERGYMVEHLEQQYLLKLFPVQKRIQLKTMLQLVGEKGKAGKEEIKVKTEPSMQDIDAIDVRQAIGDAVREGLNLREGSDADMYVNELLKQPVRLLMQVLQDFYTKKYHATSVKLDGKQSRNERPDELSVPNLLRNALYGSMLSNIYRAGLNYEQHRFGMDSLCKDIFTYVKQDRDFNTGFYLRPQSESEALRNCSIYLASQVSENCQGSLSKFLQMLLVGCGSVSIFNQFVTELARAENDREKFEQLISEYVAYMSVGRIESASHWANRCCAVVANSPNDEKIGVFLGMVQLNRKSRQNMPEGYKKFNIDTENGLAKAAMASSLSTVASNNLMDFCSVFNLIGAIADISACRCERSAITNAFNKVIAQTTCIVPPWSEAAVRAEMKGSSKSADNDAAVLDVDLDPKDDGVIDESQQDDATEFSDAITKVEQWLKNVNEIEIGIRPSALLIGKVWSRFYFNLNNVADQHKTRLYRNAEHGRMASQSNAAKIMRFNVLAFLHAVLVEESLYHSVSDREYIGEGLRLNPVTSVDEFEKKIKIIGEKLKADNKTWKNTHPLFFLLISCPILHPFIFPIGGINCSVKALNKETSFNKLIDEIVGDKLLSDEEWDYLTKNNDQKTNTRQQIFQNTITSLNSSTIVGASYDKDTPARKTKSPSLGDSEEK

E. coli RdrB (EcRdrB) [4] = molecular target: T1, E. coli RdrB (EcRdrB); assay: HPLC deamination assay (ATP to ITP) after phosphatase treatment; assay type: biochemical; details: 1 mM substrate, 1 μM RdrB, 30 min, 37 °C, pH 7.5, 10 mM MgCl2, 100 μM ZnSO4, 50 mM KCl, 1 mM TCEP
[5] = molecular target: S. suis RdrA (RADAR system of Streptococcus suis SS993) (Streptococcus suis SS993); assay: cryo-EM structure; purified S. suis RdrA alone; Talos Arctica 200 kV; single heptameric rings and double stacked rings picked

In the case of Nc1ncnc2c1ncn2[C@H]1C[C@H](O)[C@@H](COP(=O)(O)OP(=O)(O)OP(=O)(O)O)O1 [dATP], the “HPLC deamination assay (dATP to dITP) after phosphatase treatment” value (E. coli RdrB (EcRdrB) [1]) is reported as “E. coli RdrB robustly deaminates both ATP and dATP substrates with equal efficiency”.
“E. coli RdrB (RADAR system of E. coli P0304799.3) (enzyme)” showed a stoichiometry N [2] of 12.
“E. coli RdrA (RADAR system of E. coli P0304799.3) (enzyme)” showed a stoichiometry N [3] of 7.
In the case of Nc1ncnc2c1ncn2[C@@H]1O[C@H](COP(=O)(O)OP(=O)(O)OP(=O)(O)O)[C@@H](O)[C@H]1O [ATP], the “malachite green phosphate release (NTPase)” value (E. coli RdrA (EcRdrA)) is reported as “RdrA is an active ATPase in vitro that preferentially hydrolyzes ATP” and the “HPLC deamination assay (ATP to ITP) after phosphatase treatment” value (E. coli RdrB (EcRdrB) [4]) is reported as “E. coli RdrB robustly deaminates both ATP and dATP substrates with equal efficiency”.
O=c1[nH]cnc2c1ncn2[C@@H]1O[C@H](COP(=O)(O)OP(=O)(O)OP(=O)(O)O)[C@@H](O)[C@H]1O [ITP] was tested, and the “malachite green phosphate release (NTPase)” value (E. coli RdrA (EcRdrA); weak substrate) was “Compared with ATP, RdrA only weakly hydrolyzes ITP and GTP”.
“S. suis RdrA (RADAR system of Streptococcus suis SS993) (enzyme)” was tested, and the stoichiometry N [5] was 7 and 14.
